Consider eleven compounds from patent US7122651B1, “Nucleic acid molecules encoding opioid growth factor receptors” (priority 1998, dated 2006).

In general, Kd refers to the constant that tells how readily two partners part at equilibrium.

Data set [1] relates to IEC-6 rat small intestine epithelial cell line. As to the kind of experiment: Cell number in IEC-6 cultures (trypan blue, hemacytometer). The class given is cell-based. The note with it: 10^−6 M, 48 hr of exposure, IEC-6 cells. As for the experimental part: FIG. 6 depicts histogram of cell number in cultures of IEC-6 rat intestinal epithelial cells treated for 48 hr with either sterile water (CO), 10^−6 M NTX, 10^−6 M 23-mer S-ODN (antisense), or scrambled oligoprobe (scrambled). Cells (5×10^3) were plated, and compounds and fresh media were added 24 hr and 48 hr later. After 72 hr in culture, cells were trypsinized, stained with trypan blue, and counted with a hemacytometer.
The IEC-6 rat small intestine epithelial cell line (American Type Tissue Culture Collection, Manassas, Va.) were grown in Dulbecco's medium supplemented with 10% fetal calf serum. For experiments, 5×10^3 cells/well in a 24-well plate were seeded and, 24 hr later, 10^−6 M concentrations of the antisense or the scrambled S-ODN were added. Some wells were exposed to 10^−6 NTX or an equivalent volume of sterile water. Media, S-ODNs, or drugs were changed daily. After 72 hr in culture, cells were trypsinized, stained with trypan blue, and counted with a hemacytometer; 3 wells/treatment group were assessed. The data were evaluated with ANOVA, and subsequent comparisons were made with the Newman-Keuls tests.

Data set [2] concerns SK-N-AS human neuroblastoma cell line. As to the kind of experiment: Cell number in SK-N-AS cultures (trypan blue, hemacytometer). The note with it: 10^−6 M, SK-N-AS cells. The class given is cell-based. The protocol:
FIG. 10 depicts histogram of cell number in cultures of SK-N-AS human neuroblastoma cells treated for 48 hr with either sterile water (CO), 10^−6 M NTX, 10^−6 M S-ODN, or scrambled oligonucleotide. Cells (6×10^3) were plated and compounds and fresh media added 24 hr and 48 hr later. After 72 hr in culture, cells were trypsinized, stained with trypan blue, and counted with a hemacytometer.
To study the function of the isolated cDNA with respect to regulation of cell growth, a 23-mer antisense S-ODN (nuclease-resistant phosphorothioate; Oligo, Etc., Bethel, Me.) targeted against a sequence containing the translation initiation site of the OGF binding protein was designed: 5′-[…]-3′ (antisense, SEQ ID NO: 17). A scrambled (control) S-ODN was also designed: 5′-[…]-3′ (SEQ ID NO: 18).
The SK-N-AS human neuroblastoma cell line (American Type Tissue Culture Collection, Manassas, Va.) was grown in Dulbecco's medium supplemented with 10% fetal calf serum. For experimentation, 6×10^3 cells/well in a 24-well plate were seeded and, 24 hr later, 10^−6 M concentrations of the antisense or the scrambled S-ODN was added. […] After 72 hr in culture, cells were trypsinized, stained with trypan blue, and counted with a hemacytometer. Data from the antisense experiments were evaluated with ANOVA, and subsequent comparisons made with the Newman-Keuls tests.

Data set [3] concerns the target T1, nuclear homogenates of human pancreatic tumor cells (PANC-1) (Homo sapiens, UniProt Q9NZT2).
T1 construct: host or cells: PANC-1; nuclear (P1) homogenates, and P2, P3 and S3 fractions in the fractionation study
T1 sequence (Q9NZT2 1-677): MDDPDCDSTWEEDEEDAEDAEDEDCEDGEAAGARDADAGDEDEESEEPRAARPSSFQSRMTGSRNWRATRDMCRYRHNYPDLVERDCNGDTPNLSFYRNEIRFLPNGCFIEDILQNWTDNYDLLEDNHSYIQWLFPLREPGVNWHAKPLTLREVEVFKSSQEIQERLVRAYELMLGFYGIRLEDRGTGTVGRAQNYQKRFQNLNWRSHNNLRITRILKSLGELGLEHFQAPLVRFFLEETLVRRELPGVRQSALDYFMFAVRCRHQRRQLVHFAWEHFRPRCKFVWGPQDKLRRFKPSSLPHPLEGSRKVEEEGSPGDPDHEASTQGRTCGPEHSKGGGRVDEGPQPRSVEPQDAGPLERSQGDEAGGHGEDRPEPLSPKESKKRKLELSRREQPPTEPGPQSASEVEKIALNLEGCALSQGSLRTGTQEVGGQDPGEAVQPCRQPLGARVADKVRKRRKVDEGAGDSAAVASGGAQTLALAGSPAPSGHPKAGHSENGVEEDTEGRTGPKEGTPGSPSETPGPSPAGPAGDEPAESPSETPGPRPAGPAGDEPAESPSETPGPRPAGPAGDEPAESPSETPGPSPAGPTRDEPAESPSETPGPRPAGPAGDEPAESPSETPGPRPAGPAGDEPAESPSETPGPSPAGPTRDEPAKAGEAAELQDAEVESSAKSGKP
The experiment in a line: Competition for binding of [^3H]-[Met^5]-enkephalin in PANC-1 nuclear homogenates. The note with it: for competition for [^3H][Met^5]-enkephalin binding: 1 or 2 nM radioligand. The protocol:
Each concentration was run in triplicate and every compound was tested twice.
(§1) Analysis and statistics. Receptor binding data were analyzed with either the Lundon I (Saturation Isotherm Binding Analysis) computer program (Lundon Software, Cleveland, Ohio) or GraphPad Prism software. Both programs utilize nonlinear least-squares regression. Binding isotherms and Scatchard plots were computed directly by the programs. […] Comparisons of Bmax and Kd values were made using analysis of variance and posthoc Newman-Keuls tests.
Competition experiments using 1 or 2 nM [^3H]

The target in data set [4] is T2, PANC-1 nuclear (P1) homogenates (Homo sapiens, UniProt Q9NZT2).
T2 construct: host or cells: PANC-1; nuclear (P1) homogenates, and P2, P3 and S3 fractions in the fractionation study
T2 sequence (Q9NZT2 1-677): T1 sequence (Q9NZT2 1-677)
The experiment in a line: Binding of [^3H]-[Met^5]-enkephalin to PANC-1 nuclear homogenates (saturation and characterization). The following applies: for Binding, of the optimal binding at 22° C.: 2 nM ligand. As for the experimental part:
(§2) Cell culture. PANC-1, Mia PaCa-2, BxPC-3, and Capan-1 cell lines were obtained from the American Type Culture Collection (Manassas, Va.). […] Panc-1 cells between passages 62–74 were used for the characterization studies.
(§3) Preparation of protein fractions. Cell cultures were harvested by scraping of the flasks, and cells were pelleted by centrifugation. The washed pellet was homogenized (Polytron, setting 5, 2×10 sec) in a 1:20 (wt/vol) solution of cold 50 mM Tris-HCl with 0.1 mg/ml bacitracin, 1 mg/ml leupeptin, 6 nM thiorphan, 1 mM EGTA, and 3.5 mM PMSF (pH 7.4) at 4° C.; this buffer is termed Tris/all.
(§4) Receptor binding assays. Homogenates of nuclear protein were diluted with Tris/all to the appropriate protein concentration and incubated at room temperature (22° C.) for 20 min to remove endogenous peptides. Aliquots of protein were resuspended to 0.95 ml and incubated with agitation with radioactive ligand. […] The final volume of the incubation mixture was 1 ml. Isotope incubation was terminated by rapid filtration through Whatman GF-B filters under vacuum pressure with a Brandel Cell Harvester. Filters were rinsed with ice-cold Tris/all buffer, dried at 60° C. for 1 hr and counted by liquid scintillation spectrometry (Beckman LS-2800). […] Duplicate tubes of homogenates were assayed for each concentration utilized. Protein concentrations were determined by the BioRad method with g-globulin as the standard.
as §1

The target in data set [5] is normal human pancreas (Homo sapiens, UniProt Q9NZT2). The note with it: 3 normal specimens.
Experimental: Normal tissues (as determined from histological assessment) were obtained from two females and a person. […] Samples were collected and frozen in liquid nitrogen within 1 hr of surgery. Receptor binding assays were performed as stated above.
Data set [6] has as its target nuclear-enriched fraction of human placenta. As to the kind of experiment: Binding of radiolabeled [Met^5]-enkephalin to human placenta. The note with it: one-site model, read-out: binding affinity (Kd). The text has this:
A one-site model of binding was noted.

Data set [7] concerns the target Xenografts of Capan-1 growing in nude mice (Homo sapiens, UniProt Q9NZT2). The note with it: Capan-1 xenograft, harvested 40 days after inoculation. As for the experimental part: as §4
For data set [8], the target named is Capan-1 nuclear fraction (Homo sapiens, UniProt Q9NZT2). The following applies: Capan-1, log phase. As for the experimental part:
as §2, §3, §4

Data set [9] concerns the target MIA PaCA-2 nuclear fraction (Homo sapiens, UniProt Q9NZT2). The note with it: MIA PaCA-2, log phase. The protocol:
as §2, §3, §4

For data set [10], the target named is BxPC-3 nuclear fraction (Homo sapiens, UniProt Q9NZT2). The note with it: BxPC-3, log phase. As for the experimental part:
as §2, §3, §4

Data set [11] addresses rat OGFr 12-GST fusion protein (cDNA clone #12). As to the kind of experiment: Saturation binding of [^3H]-[Met^5]-enkephalin to purified rat OGFr GST fusion protein. The note with it: mean±SE, 6 assays, 22° C., 30 min, read-out: binding affinity (Kd). The protocol: Fusion proteins (80–120 ng/tube) were incubated for 30 min with shaking at 22° C. […] Binding was terminated by filtering homogenates through Whatman GF/B filters. Saturation isotherms were plotted using GraphPad Prism software (GraphPad Software Inc., San Diego, Calif.).

Data set [12] deals with human pancreatic cancer tissue (Homo sapiens, UniProt Q9NZT2). As for the experimental part: as §4
Receptor binding assays were performed as stated above.

Data set [13] addresses PANC-1 subcellular fractions (P1, P2, P3, S3) (Homo sapiens, UniProt Q9NZT2). The protocol:
For subcellular fractionation studies, the supernatant of P1 was centrifuged at 39,000× g for 30 min to obtain a plasma membrane pellet (P2). The P2 supernatant was centrifuged overnight (100,000× g), resulting in a microsomal pellet (P3) and soluble supernatant (S3). All fractions were inspected for purity by phase-contrast microscopy.
as §4
Sucrose gradient centrifugation was performed to separate the nuclear (P1), membrane (P2), microsomal (P3), and soluble (S3) fractions (Table II).

Data set [14] addresses SCCHN enriched nuclear preparations (Homo sapiens, UniProt Q9NZT2). The text has this:
(§5) Human tissue samples were representative of a variety of squamous cell carcinomas, including specimens from the oral cavity-larynx, and regional metastases. Normal mucosal specimens were obtained during uvu-lopalatopharyngoplasty.

The target in data set [15] is normal mucosa enriched nuclear preparations (Homo sapiens, UniProt Q9NZT2). The following applies: normal epithelium.
Excerpt: as §5

Setting [16] is: optimal conditions, P1 fraction.

Sequence of rat OGFr 12-GST fusion protein (cDNA clone #12) (as listed by the source): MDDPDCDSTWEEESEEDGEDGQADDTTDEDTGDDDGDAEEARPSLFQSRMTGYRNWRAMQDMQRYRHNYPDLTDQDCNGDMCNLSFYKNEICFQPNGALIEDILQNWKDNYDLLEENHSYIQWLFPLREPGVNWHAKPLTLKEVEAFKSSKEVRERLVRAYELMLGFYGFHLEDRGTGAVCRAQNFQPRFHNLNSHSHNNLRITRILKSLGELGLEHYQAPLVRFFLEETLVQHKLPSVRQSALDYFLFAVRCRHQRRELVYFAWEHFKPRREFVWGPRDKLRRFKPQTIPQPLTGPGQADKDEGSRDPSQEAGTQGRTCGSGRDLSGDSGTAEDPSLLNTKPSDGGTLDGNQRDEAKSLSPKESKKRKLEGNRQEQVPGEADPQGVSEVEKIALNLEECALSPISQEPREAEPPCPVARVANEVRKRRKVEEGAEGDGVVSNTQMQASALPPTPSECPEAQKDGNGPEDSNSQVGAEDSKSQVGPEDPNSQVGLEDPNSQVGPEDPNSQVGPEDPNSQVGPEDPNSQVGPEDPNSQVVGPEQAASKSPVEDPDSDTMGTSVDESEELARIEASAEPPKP

For “5′-GACTCAGGGACTTAGCTTCATCC-3′ (DNA, all phosphorothioate, methylation of C not given here) [antisense S-ODN (SEQ ID NO: 15)]”, the “elevation of cell number from control cultures” value (“elevation of cell number” for short) in data set [1] is given as 294%.
For the compound “5′-GGTCGTCCATGCTCGGCTAGAAT-3′ (DNA, all phosphorothioate, methylation of C not given here) [antisense S-ODN (SEQ ID NO: 17)]”, in data set [2] (48 hr of exposure), the “elevation of cell number” value came out at 60%.
With `C[C@@H](NC(=O)[C@@H](N)Cc1ccc(O)cc1)C(=O)NCC(=O)N(C)[C@@H](Cc1ccccc1)C(=O)NCCO` [DAMGO, [D-Ala^2, N-Me-Phe^4, Gly^5-ol]-enkephalin], the “competition for [^3H][Met^5]-enkephalin binding” value (“competition” for short) in [3] is on record as “little or no competition”.
In the case of `CC[C@]12CCN(CC3CC3)[C@H](C(=O)c3ccc(O)cc31)[C@@H]2C` [EKC, ethylketocyclazocine], the “competition” value in data set [3] was “little or no competition”.
For the compound `Nc1nc2c(ncn2[C@@H]2O[C@H](COP(=O)(O)OP(=O)(O)NP(=O)(O)O)[C@@H](O)[C@H]2O)c(=O)[nH]1` [GppNHp, guanylylimidodiphosphate], in [4] (50, 100, or 200 μM), the “effect on binding of [^3H]-[Met^5]-enkephalin” value is listed as “not markedly altered”.
Consider `O=C1CC[C@@]2(O)[C@H]3Cc4ccc(O)c5c4[C@@]2(CCN3CC2CC2)[C@H]1O5` [NTX, naltrexone], for which the “elevation of cell number” value in [1] came to 223%. In addition, the “growth relative to control cultures” value in data set [2] (48 hr) is given as “increased cell growth from control values”.
Take DPDPE [[D-Pen^2, Pen^5]-enkephalin]: the “competition” value in [3] is “little or no competition”.
“Dynorphin A1-8 (YGGFLRRI) [κ receptor ligand]”: the “competition” value in data set [3] is “little or no competition”.
Turning to [Met^5]-enkephalin, the “ability to displace [^3H][Met^5]enkephalin relative to the next ranking compound” value in [3] worked out at 100 fold.
Regarding [^3H]-[Met^5]-enkephalin, the Bmax in [5] is 46.7±27.8 fmol/mg protein; in data set [7], 4.2±1.1 fmol/mg protein; in [8] it was 22.7 ± 9.5 fmol/mg; in data set [9] it was 11.9 ± 1.5 fmol/mg; in [10], 25.5 ± 9.7 fmol/mg; in data set [12] (specimens from 3 patients), 6.6±1.2 fmol/mg protein. Also, the Bmax in [4] (PANC-1, Table IV, at least 3 independent assays) was 28.9 ± 6.2 fmol/mg; in data set [4] (PANC-1 Confluent, 5 days in culture), 7.8 ± 0.0 fmol/mg protein; in data set [4] (PANC-1 Log phase, 3 days in culture) it was 20.7 ± 1.2 fmol/mg protein; in data set [4] (PANC-1 Post-confluent, 7–8 days in culture) it was 35.6 ± 0.3 fmol/mg protein; in [13] (P1 fraction, Nuclear) it was 21.8±4.8 fmol/mg protein. The values for the dissociation constant Kd in data set [6] and in data set [11] were 12.3 ± 3.9 nM and 2.8 ± 1.1 nM, respectively. Besides, the binding recorded entry in data set [12] (3 further specimens) was “non-specific and non-saturable binding”. Also, the “time to reach binding equilibrium” value in data set [4] (22° C.) is 60 to 75 min. Besides, the “effect of length of time in culture on affinity” value in data set [4] (PANC-1 log phase, confluent, post-confluent) was “no effect”. For the same compound, the “reduction of binding capacity in contrast to post-confluent cells” value in data set [4] (confluent cultures) was 78%; in data set [4] (log-phase cultures), 42%. Besides, the “Binding, of the optimal binding at 22° C.” value in data set [4] (incubation at 0° C.) came to 12%; in data set [4] (incubation at 37° C.), 21%. Further, in data set [4] (setting [16]), the “Nonspecific binding, of the total binding” value was around 52%. In addition, in [4] (setting [16]), the “maximal binding capacity (Bmax)” value turned out to be 36.4±4.1 fmol/mg protein. For the same compound, the “specific and saturable binding” value in [13] (fractions enriched in P2, P3, or S3) is “No specific and saturable binding”. For the same compound, the entries for the “Binding capacity (Bmax)” value in data set [14] (neoplastic specimens) and in [15] were 13.6±1.9 fmol/mg protein and 80.8±32.8 fmol/mg protein, respectively. Moreover, the “Bmax of neoplastic specimens less than normal epithelium” value in [14] (p<0.01) is listed as 6 fold.
As for β-endorphin, the IC50/Kd in data set [3] (competition with [^3H]-[Met^5]-enkephalin, at least 2 independent assays) is on record as >10^−4.
